Data as given in US20090227606A1, “Methods for Preventing or Treating Acute and Chronic Pain” (priority 2006, published 2009).

Tested on: GLT-1
Assay: Immunohistochemistry of rat lumbar spinal cord, GLT-1
Format: in vivo
Settings: day 12 post-transection, ipsilateral vs contralateral
Description: For assessment of GFAP, GLT-1 and GLAST immunoreactivity, a separate group of rats (n=4/treatment) were anesthetized and transcardially perfused with 0.1 M PBS (phosphate-buffered saline), pH 7.4, followed by 4% paraformaldehyde in PBS on day 12 post-L5 spinal nerve transection. Lumbar spinal cord sections were identified, isolated, and processed as described previously (Colburn, R. W. et al. 1997. J. Neuroimmunol. 79:163-175). Free-floating, […] were cut in a cryostat and processed for immunofluorescence. Sections were blocked with 5% FBS/0.1% Triton-X 100 for 1 hour at room temperature (RT). For double immunofluorescence, spinal sections were incubated with a mixture of rabbit polyclonal anti-GLT-1 (1:500) or guinea pig anti-GLAST (1:5000, Chemicon, Temecula, Calif.), and mouse anti-GFAP G-A-5 (astrocyte marker, 1:400, Sigma Chemical Co., St. Louis, Mo.) in 3% FBS/0.1% triton-X 100/TBS over night at 4° C., washed, incubated in a mixture of goat anti-rabbit Alexa Fluor™-555 and goat anti-mouse Alexa Fluor™-488 (1:250, Molecular Probes, Eugene, Oreg.) secondary antibodies in 3% FBS/0.1% triton-X 100/TBS for 1 hour at RT. To control for nonspecific staining, control sections were incubated in the absence of primary antibodies. The sections were examined with a fluorescence microscope, and images were captured with a Q-Fire cooled camera. […]

In the case of `CCCn1cnc2c1c(=O)n(CCCCC(C)=O)c(=O)n2C` [propentofylline], the “GLT-1 immunoreactivity in dorsal horn” value is reported as “no qualitative difference in GLT-1 between ipsilateral and contralateral dorsal horns”.
